From PMC10009787 (ACS Medicinal Chemistry Letters, 2023)
Read-outs that look alike come from different tables or passages of the source.

Assays:
EGFR (ErbB1) = EGFR (ErbB1) (Homo sapiens, UniProt P00533); test: SelectScreen kinase profiling / Z′-Lyte kinase assay
TEC = TEC (Homo sapiens, UniProt P42680); test: SelectScreen kinase profiling; assay type: biochemical; conditions: average of duplicate
[1] = target: MAP2K1 (MEK1) S218D S222D (Homo sapiens, UniProt Q02750, S218D/S222D); test: SelectScreen kinase profiling; assay type: biochemical; conditions: average of duplicate
ERBB2 (HER2) = ERBB2 (HER2) (Homo sapiens, UniProt P04626); test: SelectScreen kinase profiling; assay type: biochemical; conditions: average of duplicate
RIPK2 = RIPK2 (Homo sapiens, UniProt O43353); test: SelectScreen kinase profiling; assay type: biochemical; conditions: average of duplicate
BTK = BTK (Homo sapiens, UniProt Q06187); test: Western blot, phosphorylation of BTK in Jeko-1 cells; assay type: cell-based; conditions: 2 h
BTK-NanoLuc fusion = target: T1, BTK-NanoLuc fusion (Homo sapiens, UniProt Q06187); test: NanoBRET cellular engagement of BTK; assay type: cell-based; conditions: HEK293 cells
T1 construct: host or cells: HEK293
Protocol: NanoBRET Experiments: HEK293 cells were transfected with the BTK-NanoLuc fusion vector (Promega, #N2501) according to the manufacturer’s protocol. After […]
Promega, #N2501) for 30 minutes. After an additional 30, 60, or 90 minutes the NanoBRET complete substrate plus inhibitor solution (3X solution in Opti-MEM I reduced serum medium, no phenol red, Promega, #N2501) was added to each well.
After 5-10 minutes, the BRET ratio was measured using BMG Labtech CLARIOstar with preloaded filters for donor 450nm/80nm BP (band pass) and acceptor 610nm LP (long

ITK = target: T2, ITK (Homo sapiens, UniProt Q08881); test: AssayQuant kinact/Ki profiling, PhosphoSens CSox-based kinetic assay
T2 sequence (Q08881 1-620): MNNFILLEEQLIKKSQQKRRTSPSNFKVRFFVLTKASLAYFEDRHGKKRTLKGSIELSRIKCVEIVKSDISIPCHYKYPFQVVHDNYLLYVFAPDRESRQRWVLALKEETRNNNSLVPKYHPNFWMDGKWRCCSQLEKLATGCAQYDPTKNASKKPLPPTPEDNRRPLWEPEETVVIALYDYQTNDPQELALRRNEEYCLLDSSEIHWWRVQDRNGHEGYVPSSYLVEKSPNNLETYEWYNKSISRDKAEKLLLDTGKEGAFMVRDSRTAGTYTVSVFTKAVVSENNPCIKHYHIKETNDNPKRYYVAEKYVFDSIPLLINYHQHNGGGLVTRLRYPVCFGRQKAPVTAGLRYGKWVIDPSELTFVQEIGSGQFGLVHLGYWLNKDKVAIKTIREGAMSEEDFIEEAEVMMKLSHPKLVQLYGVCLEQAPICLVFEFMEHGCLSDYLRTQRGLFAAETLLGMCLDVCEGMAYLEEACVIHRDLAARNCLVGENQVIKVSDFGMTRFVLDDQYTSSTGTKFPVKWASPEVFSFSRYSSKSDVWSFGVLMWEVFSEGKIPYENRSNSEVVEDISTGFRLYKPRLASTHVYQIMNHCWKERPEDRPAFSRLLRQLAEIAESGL

JAK3 = JAK3 (Homo sapiens, UniProt P52333); test: SelectScreen kinase profiling / Z′-Lyte kinase assay
KIT V559D = KIT V559D (Homo sapiens, UniProt P10721, V559D); test: SelectScreen kinase profiling; assay type: biochemical; conditions: average of duplicate
TXK = TXK (Homo sapiens, UniProt P42681); test: SelectScreen kinase profiling; assay type: biochemical; conditions: average of duplicate
FRK (PTK5) = FRK (PTK5) (Homo sapiens, UniProt P42685); test: SelectScreen kinase profiling; assay type: biochemical; conditions: average of duplicate
PTK6 (Brk) = PTK6 (Brk) (Homo sapiens, UniProt Q13882); test: SelectScreen kinase profiling; assay type: biochemical; conditions: average of duplicate
LYN A = LYN A (Homo sapiens, UniProt P07948); test: SelectScreen kinase profiling; assay type: biochemical; conditions: average of duplicate
TTK = TTK (Homo sapiens, UniProt P33981); test: SelectScreen kinase profiling; assay type: biochemical; conditions: average of duplicate

BTK, sequence (Q06187 whole entry, the tested form may be a part): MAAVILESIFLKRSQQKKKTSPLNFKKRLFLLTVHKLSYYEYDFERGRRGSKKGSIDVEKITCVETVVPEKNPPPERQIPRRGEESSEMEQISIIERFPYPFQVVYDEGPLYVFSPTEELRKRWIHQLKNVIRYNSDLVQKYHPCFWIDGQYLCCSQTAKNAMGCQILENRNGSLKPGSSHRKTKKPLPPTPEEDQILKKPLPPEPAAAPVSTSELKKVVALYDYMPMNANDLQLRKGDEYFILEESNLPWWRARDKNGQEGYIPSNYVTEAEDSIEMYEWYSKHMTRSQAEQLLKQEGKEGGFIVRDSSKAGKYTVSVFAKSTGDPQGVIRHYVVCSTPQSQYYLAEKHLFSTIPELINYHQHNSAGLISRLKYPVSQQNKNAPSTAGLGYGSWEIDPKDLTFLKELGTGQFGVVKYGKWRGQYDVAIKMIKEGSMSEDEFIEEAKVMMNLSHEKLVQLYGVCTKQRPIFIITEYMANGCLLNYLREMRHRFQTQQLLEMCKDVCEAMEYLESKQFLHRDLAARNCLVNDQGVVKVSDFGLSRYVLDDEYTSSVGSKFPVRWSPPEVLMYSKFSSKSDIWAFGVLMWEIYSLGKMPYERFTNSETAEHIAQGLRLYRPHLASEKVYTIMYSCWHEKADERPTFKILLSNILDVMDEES
T1 sequence (Q06187 whole entry, the tested form may be a part): as above
EGFR (ErbB1), sequence (P00533 668-1210 limits assumed): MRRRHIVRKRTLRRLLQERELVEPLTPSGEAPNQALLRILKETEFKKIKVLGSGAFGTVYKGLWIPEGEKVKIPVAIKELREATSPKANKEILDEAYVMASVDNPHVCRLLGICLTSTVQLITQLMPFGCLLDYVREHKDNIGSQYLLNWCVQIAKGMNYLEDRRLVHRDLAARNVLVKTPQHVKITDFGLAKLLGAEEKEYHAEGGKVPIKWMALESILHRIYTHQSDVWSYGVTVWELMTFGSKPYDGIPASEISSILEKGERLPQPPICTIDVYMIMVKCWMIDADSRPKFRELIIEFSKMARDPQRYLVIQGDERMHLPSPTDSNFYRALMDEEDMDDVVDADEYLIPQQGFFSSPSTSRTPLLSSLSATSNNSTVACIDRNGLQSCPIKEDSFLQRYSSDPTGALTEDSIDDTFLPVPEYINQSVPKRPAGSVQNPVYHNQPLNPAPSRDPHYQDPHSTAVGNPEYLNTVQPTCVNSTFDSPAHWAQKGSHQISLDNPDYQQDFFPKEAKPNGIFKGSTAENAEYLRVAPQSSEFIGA
JAK3, sequence (P52333 781-1124 limits assumed): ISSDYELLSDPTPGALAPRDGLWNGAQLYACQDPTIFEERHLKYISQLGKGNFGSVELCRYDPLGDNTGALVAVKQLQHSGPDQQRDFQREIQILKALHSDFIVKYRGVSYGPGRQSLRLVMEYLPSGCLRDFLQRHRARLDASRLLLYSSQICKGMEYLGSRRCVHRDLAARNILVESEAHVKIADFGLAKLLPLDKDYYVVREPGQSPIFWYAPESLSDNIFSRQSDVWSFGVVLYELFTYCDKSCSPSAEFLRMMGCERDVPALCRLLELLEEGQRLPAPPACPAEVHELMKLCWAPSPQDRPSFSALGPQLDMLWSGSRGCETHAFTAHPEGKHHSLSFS
PTK6 (Brk), sequence (Q13882 whole entry): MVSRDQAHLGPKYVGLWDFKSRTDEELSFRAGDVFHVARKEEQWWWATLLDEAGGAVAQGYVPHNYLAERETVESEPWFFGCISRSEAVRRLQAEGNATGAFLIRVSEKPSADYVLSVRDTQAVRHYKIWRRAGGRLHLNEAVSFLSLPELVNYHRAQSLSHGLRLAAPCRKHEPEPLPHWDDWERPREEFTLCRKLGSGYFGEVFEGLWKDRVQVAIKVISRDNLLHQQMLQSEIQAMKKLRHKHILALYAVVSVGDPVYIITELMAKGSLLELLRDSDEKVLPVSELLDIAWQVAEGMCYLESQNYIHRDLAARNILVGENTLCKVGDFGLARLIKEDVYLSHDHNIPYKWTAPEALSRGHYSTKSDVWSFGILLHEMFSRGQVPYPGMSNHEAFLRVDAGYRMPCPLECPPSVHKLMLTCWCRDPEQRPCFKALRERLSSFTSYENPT
FRK (PTK5), sequence (P42685 whole entry): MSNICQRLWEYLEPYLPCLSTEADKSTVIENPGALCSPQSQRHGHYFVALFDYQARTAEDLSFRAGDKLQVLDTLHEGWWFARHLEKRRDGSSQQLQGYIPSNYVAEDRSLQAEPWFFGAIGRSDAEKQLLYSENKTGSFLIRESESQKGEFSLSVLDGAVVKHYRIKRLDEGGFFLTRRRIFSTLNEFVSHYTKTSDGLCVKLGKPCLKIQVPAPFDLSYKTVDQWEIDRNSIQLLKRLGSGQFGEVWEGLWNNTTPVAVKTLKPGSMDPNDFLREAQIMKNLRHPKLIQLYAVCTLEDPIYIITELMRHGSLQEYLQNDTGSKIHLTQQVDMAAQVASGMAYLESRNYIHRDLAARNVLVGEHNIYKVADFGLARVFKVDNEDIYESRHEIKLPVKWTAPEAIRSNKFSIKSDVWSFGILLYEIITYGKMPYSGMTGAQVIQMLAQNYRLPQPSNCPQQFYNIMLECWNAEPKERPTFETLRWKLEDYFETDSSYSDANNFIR
KIT V559D, sequence (P10721 26-976 V559D): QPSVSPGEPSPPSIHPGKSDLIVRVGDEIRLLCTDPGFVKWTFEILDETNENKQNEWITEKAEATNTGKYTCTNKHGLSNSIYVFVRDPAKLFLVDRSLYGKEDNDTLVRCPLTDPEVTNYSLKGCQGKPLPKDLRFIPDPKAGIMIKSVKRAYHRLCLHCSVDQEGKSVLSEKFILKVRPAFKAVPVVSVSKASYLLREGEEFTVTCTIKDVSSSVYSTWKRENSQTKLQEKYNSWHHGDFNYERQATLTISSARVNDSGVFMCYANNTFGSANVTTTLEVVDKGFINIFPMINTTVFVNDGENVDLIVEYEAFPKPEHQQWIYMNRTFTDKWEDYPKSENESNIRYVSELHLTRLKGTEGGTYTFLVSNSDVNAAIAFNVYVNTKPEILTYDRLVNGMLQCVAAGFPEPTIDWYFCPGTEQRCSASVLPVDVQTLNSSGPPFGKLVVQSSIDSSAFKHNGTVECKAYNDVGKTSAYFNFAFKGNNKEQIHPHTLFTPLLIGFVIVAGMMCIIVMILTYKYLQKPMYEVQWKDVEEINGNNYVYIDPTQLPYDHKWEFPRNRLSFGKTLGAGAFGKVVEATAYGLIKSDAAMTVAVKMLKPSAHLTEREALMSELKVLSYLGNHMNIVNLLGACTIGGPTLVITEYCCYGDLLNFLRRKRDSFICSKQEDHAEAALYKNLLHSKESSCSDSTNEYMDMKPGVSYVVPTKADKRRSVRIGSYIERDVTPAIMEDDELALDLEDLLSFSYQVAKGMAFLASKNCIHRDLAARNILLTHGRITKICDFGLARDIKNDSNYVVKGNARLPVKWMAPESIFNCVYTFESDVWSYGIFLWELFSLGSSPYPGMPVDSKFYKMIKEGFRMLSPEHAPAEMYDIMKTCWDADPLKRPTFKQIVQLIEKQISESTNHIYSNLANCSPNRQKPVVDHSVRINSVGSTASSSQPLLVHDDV
RIPK2, sequence (O43353 whole entry): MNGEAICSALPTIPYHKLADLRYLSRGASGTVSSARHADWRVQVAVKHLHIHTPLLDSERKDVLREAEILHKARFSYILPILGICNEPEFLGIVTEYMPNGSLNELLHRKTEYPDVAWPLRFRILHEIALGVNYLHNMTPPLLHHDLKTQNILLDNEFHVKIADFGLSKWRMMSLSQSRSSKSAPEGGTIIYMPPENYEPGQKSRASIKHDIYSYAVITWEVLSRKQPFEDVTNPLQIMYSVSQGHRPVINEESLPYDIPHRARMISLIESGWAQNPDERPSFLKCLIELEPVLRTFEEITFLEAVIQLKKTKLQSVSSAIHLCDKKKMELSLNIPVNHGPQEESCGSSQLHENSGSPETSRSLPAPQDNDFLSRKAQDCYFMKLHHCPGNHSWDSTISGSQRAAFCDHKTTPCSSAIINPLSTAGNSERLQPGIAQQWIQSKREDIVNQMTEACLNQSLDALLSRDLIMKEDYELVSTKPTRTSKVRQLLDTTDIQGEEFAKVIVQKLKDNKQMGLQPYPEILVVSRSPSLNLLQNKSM
TXK, sequence (P42681 whole entry): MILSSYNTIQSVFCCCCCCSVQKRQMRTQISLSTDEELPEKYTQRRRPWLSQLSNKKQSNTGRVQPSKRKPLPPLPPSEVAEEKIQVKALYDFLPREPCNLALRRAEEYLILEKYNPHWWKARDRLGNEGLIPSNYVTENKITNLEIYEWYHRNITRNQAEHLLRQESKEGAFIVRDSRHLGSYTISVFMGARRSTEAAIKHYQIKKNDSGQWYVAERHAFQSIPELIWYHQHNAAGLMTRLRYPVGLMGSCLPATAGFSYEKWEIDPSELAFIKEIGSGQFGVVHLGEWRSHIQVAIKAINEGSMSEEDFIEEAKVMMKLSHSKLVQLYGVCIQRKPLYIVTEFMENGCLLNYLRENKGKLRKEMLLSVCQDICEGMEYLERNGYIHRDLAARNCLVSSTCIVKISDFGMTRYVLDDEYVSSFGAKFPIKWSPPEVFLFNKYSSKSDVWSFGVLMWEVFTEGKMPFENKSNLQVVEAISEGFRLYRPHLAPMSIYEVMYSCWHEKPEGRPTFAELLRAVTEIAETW
MAP2K1 (MEK1) S218D S222D, sequence (Q02750 whole entry S218D/S222D): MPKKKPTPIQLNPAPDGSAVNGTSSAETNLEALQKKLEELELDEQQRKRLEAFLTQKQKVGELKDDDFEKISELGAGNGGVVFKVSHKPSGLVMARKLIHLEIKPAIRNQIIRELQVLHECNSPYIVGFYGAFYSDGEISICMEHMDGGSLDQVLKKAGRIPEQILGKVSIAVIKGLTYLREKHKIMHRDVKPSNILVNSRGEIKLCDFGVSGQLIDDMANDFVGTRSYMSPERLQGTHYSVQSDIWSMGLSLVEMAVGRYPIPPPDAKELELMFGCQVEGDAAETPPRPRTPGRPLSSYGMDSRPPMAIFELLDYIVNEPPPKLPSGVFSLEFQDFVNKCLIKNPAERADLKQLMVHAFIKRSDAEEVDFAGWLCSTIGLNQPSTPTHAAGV

C=CC(=O)N1CCC[C@@H](n2nc(-c3ccc(Oc4ccccc4)cc3C)c3c(N)ncnc32)C1 [Compound 2, (R)-1-(3-(4-amino-3-(2-methyl-4-phenoxyphenyl)-1H-pyrazolo[3,4-d]pyrimidin-1-yl)piperidin-1-yl)prop-2-en-1-one]
IC50 (EGFR (ErbB1)): 197 nM
inhibition at 1 µM (EGFR (ErbB1)): 89%
Hillslope (EGFR (ErbB1); EGFR IC50 curve): 1.08
inhibition at 0.000495 µM (EGFR (ErbB1); read-out: % Inhibition Point 1): -6%
inhibition at 0.00152 µM (EGFR (ErbB1); read-out: % Inhibition Point 1): -4%
inhibition at 0.00457 µM (EGFR (ErbB1); read-out: % Inhibition Point 1): -2%
inhibition at 0.0137 µM (EGFR (ErbB1); read-out: % Inhibition Point 1): 4%
inhibition at 0.0412 µM (EGFR (ErbB1); read-out: % Inhibition Point 1): 10%
inhibition at 0.123 µM (EGFR (ErbB1); read-out: % Inhibition Point 1): 38%
inhibition at 0.37 µM (EGFR (ErbB1); read-out: % Inhibition Point 1): 60%
inhibition at 1.11 µM (EGFR (ErbB1); read-out: % Inhibition Point 1): 89%
inhibition at 3.33 µM (EGFR (ErbB1); read-out: % Inhibition Point 1): 92%
inhibition at 10 µM (EGFR (ErbB1); read-out: % Inhibition Point 1): 97%
inhibition at 0.000495 µM (EGFR (ErbB1); read-out: % Inhibition Point 2): -1%
inhibition at 0.00152 µM (EGFR (ErbB1); read-out: % Inhibition Point 2): -6%
inhibition at 0.00457 µM (EGFR (ErbB1); read-out: % Inhibition Point 2): -4%
inhibition at 0.0137 µM (EGFR (ErbB1); read-out: % Inhibition Point 2): 5%
inhibition at 0.0412 µM (EGFR (ErbB1); read-out: % Inhibition Point 2): 8%
inhibition at 0.123 µM (EGFR (ErbB1); read-out: % Inhibition Point 2): 35%
inhibition at 0.37 µM (EGFR (ErbB1); read-out: % Inhibition Point 2): 63%
inhibition at 1.11 µM (EGFR (ErbB1); read-out: % Inhibition Point 2): 82%
inhibition at 3.33 µM (EGFR (ErbB1); read-out: % Inhibition Point 2): 96%
inhibition at 10 µM (EGFR (ErbB1); read-out: % Inhibition Point 2): 95%
inhibition at 1 µM (TEC): 100%
inhibition at 1 µM [1]: 12%
inhibition at 1 µM (ERBB2 (HER2)): 71%
inhibition at 1 µM (RIPK2): 95%
pBTK/BTK ratio normalized to the DMSO control (BTK; 1 uM): 0.54
pBTK/BTK ratio normalized to the DMSO control (BTK; 10 uM): 0.21
pBTK/BTK ratio normalized to the DMSO control (BTK; .01 uM): 0.26
pBTK/BTK ratio normalized to the DMSO control (BTK; .1 uM): 0.39
IC50 (BTK-NanoLuc fusion; 30 min): 211 nM
IC50 (BTK-NanoLuc fusion; 60 min (30 + 30)): 154 nM
IC50 (BTK-NanoLuc fusion; 90 min (30 + 60)): 118 nM
IC50 (BTK-NanoLuc fusion; 90 min post compound addition): 109 nM
IC50 (BTK-NanoLuc fusion; 120 min (30 + 90)): 109 nM
kinact (ITK; read-out: ITK kinact): 0.0001 s⁻¹
kinact/KI (ITK; read-out: ITK kinact/KI): 4120 M⁻¹ s⁻¹
IC50 (JAK3): 874 nM
inhibition at 1 µM (JAK3): 65%
JAK3, BTK/Kinase (JAK3; BTK selectivity from IC50 values): 934 x
Hillslope (JAK3; JAK3 IC50 curve): 1.09
inhibition at 0.000495 µM (JAK3; read-out: % Inhibition Point 1): -1%
inhibition at 0.00152 µM (JAK3; read-out: % Inhibition Point 1): -7%
inhibition at 0.00457 µM (JAK3; read-out: % Inhibition Point 1): 2%
inhibition at 0.0137 µM (JAK3; read-out: % Inhibition Point 1): -5%
inhibition at 0.0412 µM (JAK3; read-out: % Inhibition Point 1): 6%
inhibition at 0.123 µM (JAK3; read-out: % Inhibition Point 1): 9%
inhibition at 0.37 µM (JAK3; read-out: % Inhibition Point 1): 28%
inhibition at 1.11 µM (JAK3; read-out: % Inhibition Point 1): 55%
inhibition at 3.33 µM (JAK3; read-out: % Inhibition Point 1): 89%
inhibition at 10 µM (JAK3; read-out: % Inhibition Point 1): 98%
inhibition at 0.000495 µM (JAK3; read-out: % Inhibition Point 2): -4%
inhibition at 0.00152 µM (JAK3; read-out: % Inhibition Point 2): -5%
inhibition at 0.00457 µM (JAK3; read-out: % Inhibition Point 2): 0%
inhibition at 0.0137 µM (JAK3; read-out: % Inhibition Point 2): -3%
inhibition at 0.0412 µM (JAK3; read-out: % Inhibition Point 2): -2%
inhibition at 0.123 µM (JAK3; read-out: % Inhibition Point 2): 10%
inhibition at 0.37 µM (JAK3; read-out: % Inhibition Point 2): 27%
inhibition at 1.11 µM (JAK3; read-out: % Inhibition Point 2): 56%
inhibition at 3.33 µM (JAK3; read-out: % Inhibition Point 2): 85%
inhibition at 10 µM (JAK3; read-out: % Inhibition Point 2): 93%
inhibition at 1 µM (KIT V559D): 14%
inhibition at 1 µM (TXK): 99%
inhibition at 1 µM (FRK (PTK5)): 71%
inhibition at 1 µM (PTK6 (Brk)): 97%
inhibition at 1 µM (LYN A): 85%
inhibition at 1 µM (TTK): 2%
